This is an account of results in US10752612B2, “PLK4 inhibitors” (LUDWIG INSTITUTE FOR CANCER RESEARCH LTD, priority 2015, dated 2020).

Molecules are shown by their SMILES.

In the assay the target is T1, human Plk4 kinase domain (aa 2-275) (Homo sapiens, UniProt O00444).
T1 construct: purified 6×His-tagged human Plk4 kinase domain (aa 2-275); 6xHis; made in house; host or cells: E. coli
T1 sequence (O00444 2-275): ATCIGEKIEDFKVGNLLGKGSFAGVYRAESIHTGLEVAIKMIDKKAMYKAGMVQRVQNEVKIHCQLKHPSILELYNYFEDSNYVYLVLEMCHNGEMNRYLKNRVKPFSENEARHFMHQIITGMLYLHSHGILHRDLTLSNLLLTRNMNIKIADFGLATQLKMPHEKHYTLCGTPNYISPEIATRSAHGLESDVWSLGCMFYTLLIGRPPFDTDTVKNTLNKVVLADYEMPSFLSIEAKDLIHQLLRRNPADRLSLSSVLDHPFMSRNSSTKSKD
Briefly: Plk4 kinase assay (ADP-Glo). In kind it is biochemical. Conditions: Table 1. The procedure:
Kinase assays. […] The Plk4 concentration in the final reaction was 2.5-10 nM with a final pH of 8.0. […] Reactions were allowed to proceed for 4-16 hours at 25° C. Detection was performed using ADP-Glo reagent (Promega), following manufacturer's instructions. Luminescence was measured on an Infinite M1000 plate reader (Tecan). Data were fit using Prism (GraphPad) and Kis were calculated from IC50 data using the Cheng and Prusoff equation (37) or the Copeland formalism for tight-binding inhibitors (38).
(ADP-Glo first removes unused ATP, then detects ADP through luciferase.)
For `Cc1cc(Nc2nc(Sc3ccc(NC(=O)C4CC4)cc3)nc3c2CCC3)n[nH]1`, the IC50 (in general, the point on the concentration scale where inhibition reaches its midpoint) is over 1000 nM.

Compound `CCc1c(C)nc(Sc2ccc(NC(=O)C3CC3)cc2)nc1Nc1cc(C)[nH]n1` came in with a concentration for half-maximal inhibition (IC50) of over 1000 nM.

In turn, `COc1c(Nc2cc(C)[nH]n2)nc(Sc2ccc(NC(=O)C3CC3)cc2)nc1N1CCN(C)CC1` returned an IC50 of under 1000 nM.

`COCCN(C)c1nc(Sc2ccc(NC(=O)C3CCCC3)cc2)nc(Nc2cc(C)[nH]n2)c1OC` showed an IC50 of 100 to 1000 nM.

`COCCNc1nc(Sc2ccc(NC(=O)C3CCCC3)cc2)nc(Nc2cc(C)[nH]n2)c1OC` showed an IC50 of under 1000 nM.

In the case of `COc1c(Nc2cc(C)[nH]n2)nc(Sc2ccc(NC(=O)C3CCCC3)cc2)nc1N1CCN(C(C)=O)CC1`, the IC50 is under 1000 nM.

Compound `COCCN1CCN(c2nc(Sc3ccc(NC(=O)C4CCCC4)cc3)nc(Nc3cc(C)[nH]n3)c2OC)CC1` gave an IC50 of under 1000 nM.

Take `CCOc1c(Nc2cc(C)[nH]n2)nc(Sc2ccc(NC(=O)C3CC3)cc2)nc1N1CCOCC1`: the 50% inhibitory concentration (IC50) is under 1000 nM.

For `CCOc1c(Nc2cc(C)[nH]n2)nc(Sc2ccc(NC(=O)C3CC3)cc2)nc1N1CCCCC1`, the half-inhibitory concentration (IC50) fell in the range of 100 to 1000 nM.

In turn, `COc1c(Nc2cc(C)[nH]n2)nc(Sc2ccc(NC(=O)C3CCCC3)cc2)nc1N1CCN(C)CC1` had an IC50 of under 1000 nM.

With `COc1c(Nc2cc(C)[nH]n2)nc(Sc2ccc(NC(=O)C3CCCC3)cc2)nc1N1CCNCC1`, the IC50 is under 1000 nM.

Compound `COc1c(Nc2cc(C)[nH]n2)nc(Sc2ccc(NC(=O)C3CCCC3)cc2)nc1N1CCN(CCN(C)C)CC1` yielded an IC50 of under 1000 nM.

On to `CCOc1c(Nc2cc(C)[nH]n2)nc(Sc2ccc(NC(=O)C3CC3)cc2)nc1N1CCN(CCN(C)C)CC1`, for which the IC50 is 100 to 1000 nM.

`CCOc1c(NCCOC)nc(Sc2ccc(NC(=O)C3CC3)cc2)nc1Nc1cc(C)[nH]n1` returned an IC50 of 100 to 1000 nM.

In turn, `CCOc1c(Nc2cc(C)[nH]n2)nc(Sc2ccc(NC(=O)C3CC3)cc2)nc1N1CCN(C(C)=O)CC1` gave an IC50 of 100 to 1000 nM.

The compound `CCOc1c(Nc2cc(C)[nH]n2)nc(Sc2ccc(NC(=O)C3CC3)cc2)nc1N1CCN(CCOC)CC1` gave an IC50 of 100 to 1000 nM.

The compound `CCOc1c(Nc2cc(C)[nH]n2)nc(Sc2ccc(NC(=O)C3CC3)cc2)nc1N(C)CCOC` returned an IC50 of 100 to 1000 nM.

With `COc1c(Nc2cc(C)[nH]n2)nc(Sc2ccc(NC(=O)C3CC3)cc2)nc1N1CCN(C2CCN(C)CC2)CC1`, the IC50 is under 1000 nM.

In turn, `COc1c(Nc2cc(C)[nH]n2)nc(Sc2ccc(NC(=O)C3CC3)cc2)nc1N1CCN(C(=O)CN(C)C)CC1` had an IC50 of under 1000 nM.

`COc1c(Nc2cc(C)[nH]n2)nc(Sc2ccc(NC(=O)C3CC3)cc2)nc1N1CCN(C(=O)CCN(C)C)CC1` displayed a 50% inhibitory concentration (IC50) of under 1000 nM.

Take `COCC(=O)N1CCN(c2nc(Sc3ccc(NC(=O)C4CC4)cc3)nc(Nc3cc(C)[nH]n3)c2OC)CC1`: the IC50 was under 1000 nM.

The compound `COCCC(=O)N1CCN(c2nc(Sc3ccc(NC(=O)C4CC4)cc3)nc(Nc3cc(C)[nH]n3)c2OC)CC1` gave an IC50 of under 1000 nM.

In turn, `COc1c(Nc2cc(C)[nH]n2)nc(Sc2ccc(S(=O)(=O)Cc3ccccc3)cc2)nc1N(C)C` gave a concentration for half-maximal inhibition (IC50) of under 1000 nM.

As for `COc1c(Nc2cc(C)[nH]n2)nc(Sc2ccc(S(=O)(=O)Cc3ccccc3)cc2)nc1N1CCCCC1`, the IC50 is under 1000 nM.

`COc1c(Nc2cc(C)[nH]n2)nc(Sc2ccc(S(=O)(=O)Cc3ccccc3)cc2)nc1N1CCN(CCN2CCN(C)CC2)CC1` had an IC50 of under 1000 nM.

Compound `COc1c(Nc2cc(C)[nH]n2)nc(Sc2ccc(S(=O)(=O)Cc3ccccc3)cc2)nc1N1CCN(CCN2C3CCCC2CC3)CC1` registered a concentration for half-maximal inhibition (IC50) of under 1000 nM.

As for `Cc1cc(Nc2cc(N3CCN(CCN(C)C)CC3)nc(Sc3ccc(S(=O)(=O)Cc4ccccc4)cc3)n2)n[nH]1`, the IC50 is under 1000 nM.

`COc1c(Nc2cc[nH]n2)nc(Sc2ccc(S(=O)(=O)Cc3ccccc3)cc2)nc1N1CCN(CCN(C)C)CC1`: the concentration for half-maximal inhibition (IC50) was under 1000 nM.

As for `CCS(=O)(=O)c1ccc(Sc2nc(Nc3cc(C)[nH]n3)c(OC)c(N3CCCCC3)n2)cc1`, the concentration for half-maximal inhibition (IC50) is under 1000 nM.

As to `CCS(=O)(=O)c1ccc(Sc2nc(Nc3cc(C)[nH]n3)c(OC)c(N3CCOCC3)n2)cc1`, the concentration for half-maximal inhibition (IC50) is under 1000 nM.

In the case of `COc1c(Nc2cc(C)[nH]n2)nc(Sc2ccc(S(=O)(=O)Cc3cccc([N+](=O)[O-])c3)cc2)nc1N1CCN(CCN(C)C)CC1`, the half-maximal inhibitory concentration (IC50) is under 1000 nM.

As for `COc1c(Nc2cc(C)[nH]n2)nc(Sc2ccc(S(=O)(=O)Cc3ccc([N+](=O)[O-])cc3)cc2)nc1N1CCN(CCN(C)C)CC1`, the IC50 is under 1000 nM.

In turn, `CCN(CC)c1nc(Sc2ccc(S(=O)(=O)Cc3ccccc3)cc2)nc(Nc2cc(C)[nH]n2)c1OC` gave a half-inhibitory concentration (IC50) of under 1000 nM.

`CCN(CC)c1nc(Sc2ccc(S(=O)(=O)CC)cc2)nc(Nc2cc(C)[nH]n2)c1OC`: the IC50 is under 1000 nM.

The compound `CCOc1c(Nc2cc(C)[nH]n2)nc(Sc2ccc(S(=O)(=O)Cc3ccccc3)cc2)nc1N1CCNCC1` yielded an IC50 of over 1000 nM.

Take `CCOc1c(Nc2cc(C)[nH]n2)nc(Sc2ccc(S(=O)(=O)CC)cc2)nc1N1CCNCC1`: the IC50 is under 1000 nM.

Compound `COc1c(Nc2cc(C)[nH]n2)nc(Sc2ccc(S(=O)(=O)Cc3ccc(F)cc3F)cc2)nc1N1CCN(CCN(C)C)CC1` came in with an IC50 of under 1000 nM.

As for `COc1c(Nc2cc(C)[nH]n2)nc(Sc2ccc(S(=O)(=O)Cc3ccccc3F)cc2)nc1N1CCN(CCN(C)C)CC1`, the IC50 was under 1000 nM.

In turn, `COc1c(Nc2cc(C)[nH]n2)nc(Sc2ccc(S(=O)(=O)Cc3ccccc3)cc2)nc1N1CCN(CCN(C)c2ccccc2)CC1` registered a 50% inhibitory concentration (IC50) of under 1000 nM.

Take `CCCOc1c(Nc2cc(C)[nH]n2)nc(Sc2ccc(S(=O)(=O)Cc3ccccc3)cc2)nc1N1CCN(CCN(C)C)CC1`: the IC50 was under 1000 nM.

Turning to `Cc1cc(Nc2nc(Sc3ccc(S(=O)(=O)Cc4ccccc4)cc3)nc(N3CCN(CCN(C)C)CC3)c2OC(C)C)n[nH]1`, the IC50 was under 1000 nM.

Take `COc1c(Nc2cc(C)[nH]n2)nc(Sc2ccc(S(=O)(=O)Cc3cccc(O)c3)cc2)nc1N1CCN(CCN(C)C)CC1`: the IC50 is under 1000 nM.

In turn, `COc1c(Nc2cc(C)[nH]n2)nc(Sc2ccc(S(=O)(=O)Cc3cccc(OCc4ccccc4)c3)cc2)nc1N1CCN(CCN(C)C)CC1` had an IC50 of under 1000 nM.

With `COc1c(Nc2cc(C)[nH]n2)nc(Nc2ccc(S(=O)(=O)Cc3ccccc3)cc2)nc1N1CCN(CCN(C)C)CC1`, the IC50 was under 1000 nM.

Turning to `CCOc1c(Nc2cc(C)[nH]n2)nc(Sc2ccc(S(=O)(=O)Cc3ccccc3)cc2)nc1N1CCN(CCN2C3CCCC2CC3)CC1`, the IC50 was under 1000 nM.

Regarding `CCOc1c(Nc2cc(C)[nH]n2)nc(Sc2ccc(S(=O)(=O)CC)cc2)nc1N1CCC(CCN(C)C)CC1`, the concentration for half-maximal inhibition (IC50) was under 1000 nM.

In the case of `CCOc1c(Nc2cc(C)[nH]n2)nc(Sc2ccc(S(=O)(=O)Cc3cc(F)ccc3F)cc2)nc1N1CCN(CCN(C)C)CC1`, the IC50 is under 1000 nM.

In turn, `COc1c(Nc2cc(C)[nH]n2)nc(Sc2ccc(S(=O)(=O)Cc3cccc(-c4ccccc4)c3)cc2)nc1N1CCN(CCN(C)C)CC1` yielded an IC50 of under 1000 nM.

Turning to `COc1c(Nc2cc(C)[nH]n2)nc(Sc2ccc(S(=O)(=O)Cc3cccc(C(C)=O)c3)cc2)nc1N1CCN(CCN(C)C)CC1`, the half-maximal inhibitory concentration (IC50) is under 1000 nM.

For the compound `COc1c(Nc2cc(C)[nH]n2)nc(Sc2ccc(S(=O)(=O)Cc3cccc([N+](=O)[O-])c3)cc2)nc1N1CCOCC1`, the IC50 is under 1000 nM.

`COc1c(Nc2cc(C)[nH]n2)nc(Sc2ccc(S(=O)(=O)Cc3ccccc3)cc2)nc1N1CCN(Cc2ccccc2)CC1` showed an IC50 of under 1000 nM.

The compound `COc1c(Nc2cc(C)[nH]n2)nc(Sc2ccc(S(=O)(=O)Cc3ccccc3)cc2F)nc1N1CCN(CCN(C)C)CC1` showed an IC50 of under 1000 nM.
